Experimental data: patent US12559464B2, “Quinazolinone dione compounds and uses thereof” (Edgewise Therapeutics, Inc., priority 2023, dated 2026)

Columns and labels:
[1] = tested on: myosin ATPase, Rabbit Psoas myofibrils; assay: Myofibril ATPase assay, rabbit psoas (skeletal) myofibrils; format: biochemical; conditions: Rabbit Psoas Prep pCa 25 GEOM_MEAN; for Rabbit Psoas EC25 (Y75 value): concentration required to reduce myosin ATP-ase activity by 25%; for Rabbit Psoas Y125 value (marked #): concentration required to increase myosin ATP-ase activity by 25%
[2] = tested on: myosin ATPase, Porcine Atria myofibrils; assay: Myofibril ATPase assay, porcine atria myofibrils; format: biochemical; conditions: concentration required to reduce myosin ATP-ase activity by 25%; Porcine Atria Prep pCa 25 GEOM_MEAN
[3] = target: T1, myosin ATPase, Porcine Ventricle myofibrils (Sus scrofa, UniProt P79293); assay: Myofibril ATPase assay, porcine ventricle myofibrils; format: biochemical, porcine (Yucatan minipigs); conditions: concentration required to reduce myosin ATP-ase activity by 25%; Porcine Ventricle Prep pCa 25 GEOM_MEAN
T1 construct: Myofibrils from porcine cardiac muscle was isolated from the left ventricle of Yucatan minipigs; tissue Exemplar Genetics; host or cells: left ventricle of Yucatan minipigs, myofibrils
T1 sequence (P79293 whole entry): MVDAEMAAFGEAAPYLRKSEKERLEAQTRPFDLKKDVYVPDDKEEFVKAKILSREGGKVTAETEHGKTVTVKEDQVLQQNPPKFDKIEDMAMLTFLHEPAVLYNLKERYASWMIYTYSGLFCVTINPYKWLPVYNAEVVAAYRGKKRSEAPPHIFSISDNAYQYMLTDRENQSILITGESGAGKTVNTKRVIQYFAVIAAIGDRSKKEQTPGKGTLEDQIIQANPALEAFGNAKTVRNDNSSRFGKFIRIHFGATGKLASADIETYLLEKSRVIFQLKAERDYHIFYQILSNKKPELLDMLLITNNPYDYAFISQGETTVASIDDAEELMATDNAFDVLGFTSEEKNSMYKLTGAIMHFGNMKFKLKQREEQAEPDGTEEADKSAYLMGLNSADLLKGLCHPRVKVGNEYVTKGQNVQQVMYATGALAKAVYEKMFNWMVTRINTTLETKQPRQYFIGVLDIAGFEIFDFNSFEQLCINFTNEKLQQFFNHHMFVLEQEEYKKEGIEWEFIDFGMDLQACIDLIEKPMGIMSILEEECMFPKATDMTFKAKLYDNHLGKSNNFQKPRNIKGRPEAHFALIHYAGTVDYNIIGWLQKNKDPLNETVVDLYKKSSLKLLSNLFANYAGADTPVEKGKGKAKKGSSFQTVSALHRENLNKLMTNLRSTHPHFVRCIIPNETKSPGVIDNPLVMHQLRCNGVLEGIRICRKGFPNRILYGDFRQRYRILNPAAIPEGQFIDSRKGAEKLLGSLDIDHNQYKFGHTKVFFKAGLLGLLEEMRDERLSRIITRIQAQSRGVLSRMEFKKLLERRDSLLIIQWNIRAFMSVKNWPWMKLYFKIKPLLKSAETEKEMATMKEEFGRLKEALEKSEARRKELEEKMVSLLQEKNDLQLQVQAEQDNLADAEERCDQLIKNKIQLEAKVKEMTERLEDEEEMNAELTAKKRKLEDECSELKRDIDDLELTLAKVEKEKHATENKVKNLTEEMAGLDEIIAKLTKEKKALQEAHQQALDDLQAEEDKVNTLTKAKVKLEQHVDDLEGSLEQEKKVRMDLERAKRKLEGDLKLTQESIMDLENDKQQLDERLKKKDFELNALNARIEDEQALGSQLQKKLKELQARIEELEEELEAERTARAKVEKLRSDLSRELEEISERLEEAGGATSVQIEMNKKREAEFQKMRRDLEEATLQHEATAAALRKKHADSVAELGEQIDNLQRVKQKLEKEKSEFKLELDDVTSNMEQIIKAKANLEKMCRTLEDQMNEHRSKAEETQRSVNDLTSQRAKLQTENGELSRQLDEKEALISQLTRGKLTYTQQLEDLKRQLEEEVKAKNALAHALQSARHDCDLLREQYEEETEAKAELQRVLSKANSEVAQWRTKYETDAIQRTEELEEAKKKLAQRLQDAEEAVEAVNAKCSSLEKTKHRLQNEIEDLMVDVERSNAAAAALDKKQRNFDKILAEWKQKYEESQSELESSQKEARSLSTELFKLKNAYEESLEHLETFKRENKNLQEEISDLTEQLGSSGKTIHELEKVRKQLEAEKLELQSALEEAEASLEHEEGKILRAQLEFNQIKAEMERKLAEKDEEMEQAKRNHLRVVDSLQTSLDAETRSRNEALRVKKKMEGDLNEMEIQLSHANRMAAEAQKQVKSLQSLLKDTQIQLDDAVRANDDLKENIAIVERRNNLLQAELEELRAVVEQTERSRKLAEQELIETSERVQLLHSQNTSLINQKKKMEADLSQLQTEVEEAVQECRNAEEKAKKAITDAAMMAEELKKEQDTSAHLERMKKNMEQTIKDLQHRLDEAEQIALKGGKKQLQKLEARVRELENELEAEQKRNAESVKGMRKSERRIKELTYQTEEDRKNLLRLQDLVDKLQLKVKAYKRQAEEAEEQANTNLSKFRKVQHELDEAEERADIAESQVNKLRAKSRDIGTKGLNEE
How it was run: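 Myofibrils from Yucatan minipig left ventricle; ADP production coupled via PK-LDH to NADH loss, read kinetically at 340 nm every 1.5–2 min for 75 min in PIPES/MgCl2 pH 7.0 buffer. Slopes normalized to vehicle and fit to 4-parameter logistic; values are concentrations giving 75% (inhibition) or 125% (activation) of vehicle activity.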

Row | Rabbit Psoas EC25 (Y75 value) [1] | Porcine Atria EC25 (Y75 value) [2] | Porcine Ventricle EC25 (Y75 value) [3] | Rabbit Psoas Y125 value (marked #) [1] | Compound
1 | 100 µM | 100 µM | 100 µM |  | C[C@H](NC(=O)Cn1c(=O)[nH]c2ccccc2c1=O)c1ccccc1 (single isomer, unassigned) [Compound 534]
2 | 13.814 µM | 43.27 µM | 100 µM |  | C[C@H](NC(=O)[C@@H](CC1CC1)n1c(=O)[nH]c2ccccc2c1=O)c1ccc(F)cc1F (single isomer, unassigned) [Compound 502]
3 | 100 µM | 100 µM | 100 µM |  | C[C@H](NC(=O)C(c1ccccc1)n1c(=O)[nH]c2ccccc2c1=O)c1ccc(F)cc1F (single isomer, unassigned) [Compound 510]
4 | 100 µM | 4.31 µM | 100 µM |  | C[C@@H](NC(=O)Cn1c(=O)[nH]c2ccc(C#N)cc2c1=O)c1ncc(C#N)cc1F (single isomer, unassigned) [Compound 15]
5 | 100 µM | 100 µM | 100 µM |  | Cc1ccc(C(NC(=O)Cn2c(=O)[nH]c3ccccc3c2=O)c2ccccc2)cc1C (stereo not drawn) [Compound 516, N-((3,4-dimethylphenyl)(phenyl)methyl)-2-(2,4-dioxo-1,4-dihydroquinazolin-3(2H)-yl)acetamide]
6 | 86.83 µM | 24.53 µM | 100 µM |  | C[C@H](NC(=O)Cn1c(=O)[nH]c2ccc(F)cc2c1=O)c1ncc(C#N)cn1 (single isomer, unassigned) [Compound 2]
7 | 4.019 µM | 3.03 µM | 7.299 µM |  | Cc1c(F)ccc2[nH]c(=O)n(CC(=O)N[C@H]3COc4cc(C#N)cnc43)c(=O)c12 (single isomer, unassigned) [Compound 702]
8 | 100 µM | 100 µM | 100 µM |  | CC(C)[C@H](NC(=O)Cn1c(=O)[nH]c2ccccc2c1=O)c1ccc(F)cc1F (single isomer, unassigned) [Compound 50]
9 | 100 µM | 100 µM | 70.61 µM |  | C[C@H](NC(=O)Cn1c(=O)[nH]c2cccc(C#N)c2c1=O)c1ncc(C#N)cn1 (single isomer, unassigned) [Compound 204]
10 | 100 µM | 100 µM | 100 µM |  | Cc1c(F)ccc2[nH]c(=O)n(CC(=O)N[C@H]3CCc4cc(C#N)cnc43)c(=O)c12 [Compound 10, (S)-N-(3-cyano-6,7-dihydro-5H-cyclopenta[b]pyridin-7-yl)-2-(6-fluoro-5-methyl-2,4-dioxo-1,4-dihydroquinazolin-3(2H)-yl)acetamide]
11 | 100 µM | 100 µM | 100 µM |  | CC(C)C[C@@H](C(=O)N[C@@H](C)c1ncc(F)cc1F)n1c(=O)[nH]c2ccccc2c1=O (single isomer, unassigned) [Compound 27]
12 | 1.145 µM | 36.5 µM | 100 µM |  | O=C(Cn1c(=O)[nH]c2ccncc2c1=O)N[C@H]1CCc2cc(F)cc(F)c21 (single isomer, unassigned) [Compound 44]
13 |  | 20.67 µM | 43.467 µM | 3.28^#^ μM | C[C@H](NC(=O)C(Cc1ccccc1)n1c(=O)[nH]c2ccccc2c1=O)c1ccc(F)cc1F (single isomer, unassigned) [Compound 504]
14 | 100 µM | 100 µM | 100 µM |  | C[C@H](NC(=O)Cn1c(=O)[nH]c2ccccc2c1=O)c1cc(C(F)(F)F)cc(C(F)(F)F)c1 (single isomer, unassigned) [Compound 517]
15 | 23 µM | 100 µM | 100 µM |  | C[C@H](NC(=O)Cn1c(=O)[nH]c2cccnc2c1=O)c1ccc(F)cc1F [Compound 303, (S)-N-(1-(2,4-difluorophenyl)ethyl)-2-(2,4-dioxo-1,4-dihydropyrido[3,2-d]pyrimidin-3(2H)-yl)acetamide]
16 | 100 µM | 100 µM | 100 µM |  | C[C@H](NC(=O)Cn1c(=O)[nH]c2ccccc2c1=O)c1ccncc1F (single isomer, unassigned) [Compound 99]
17 | 100 µM | 100 µM | 100 µM |  | O=C(Cn1c(=O)[nH]c2ccccc2c1=O)NC1CNC(=O)c2cc(F)cc(F)c21 (stereo not drawn) [Compound 46, N-(5,7-difluoro-1-oxo-1,2,3,4-tetrahydroisoquinolin-4-yl)-2-(2,4-dioxo-1,4-dihydroquinazolin-3(2H)-yl)acetamide]
18 | 5.743 µM | 0.57 µM | 14.04 µM |  | C[C@H](NC(=O)Cn1c(=O)[nH]c2ccc(C#N)cc2c1=O)c1ncc(C#N)cc1F (single isomer, unassigned) [Compound 16]
19 | 100 µM | 100 µM | 100 µM |  | Cc1nn(C)cc1C(C)NC(=O)Cn1c(=O)[nH]c2ccccc2c1=O (stereo not drawn) [Compound 602, N-(1-(1,3-dimethyl-1H-pyrazol-4-yl)ethyl)-2-(2,4-dioxo-1,4-dihydroquinazolin-3(2H)-yl)acetamide]
20 | 0.59 µM | 0.699 µM | 20.04 µM |  | C[C@@H](NC(=O)Cn1c(=O)[nH]c2ccc(F)cc2c1=O)c1ncc(C#N)cn1 (single isomer, unassigned) [Compound 1]
21 | 0.065 µM | 0.085 µM | 0.254 µM |  | C[C@H](NC(=O)Cn1c(=O)[nH]c2cccc(F)c2c1=O)c1ncc(C#N)cc1F (single isomer, unassigned) [Compound 208]
22 | 100 µM | 100 µM | 100 µM |  | CC(NC(=O)Cn1c(=O)[nH]c2ccccc2c1=O)c1cc(F)ccc1N(C)C (stereo not drawn) [Compound 518, N-(1-(2-(dimethylamino)-5-fluorophenyl)ethyl)-2-(2,4-dioxo-1,4-dihydroquinazolin-3(2H)-yl)acetamide]
23 | 0.073 µM | 0.0623 µM | 0.1805 µM |  | C[C@H](NC(=O)Cn1c(=O)[nH]c2ccc(F)cc2c1=O)c1ccc(F)cc1F [Compound 155, (S)-N-(1-(2,4-difluorophenyl)ethyl)-2-(6-fluoro-2,4-dioxo-1,4-dihydroquinazolin-3(2H)-yl)acetamide]
24 | 100 µM | 100 µM | 100 µM |  | COCn1c(=O)n(CC(=O)N[C@@H](C)c2ccc(F)cc2F)c(=O)c2cc(F)ccc21 [Compound 402, (S)-N-(1-(2,4-difluorophenyl)ethyl)-2-(6-fluoro-1-(methoxymethyl)-2,4-dioxo-1,4-dihydroquinazolin-3(2H)-yl)acetamide]
25 |  | 48.85 µM | 45.37 µM | 0.85^#^ μM | C[C@H](NC(=O)[C@@H](Cc1ccccc1)n1c(=O)[nH]c2cccc(O)c2c1=O)c1ccc(F)cc1F [Compound 34, (R)-N-((S)-1-(2,4-difluorophenyl)ethyl)-2-(5-hydroxy-2,4-dioxo-1,4-dihydroquinazolin-3(2H)-yl)-3-phenylpropanamide]
26 | 100 µM | 100 µM | 100 µM |  | C[C@H](NC(=O)[C@@H](CC1CC1)n1c(=O)[nH]c2ccccc2c1=O)c1ncc(F)cc1F (single isomer, unassigned) [Compound 212]
27 | 0.984 µM | 0.2427 µM | 13.83 µM |  | Cc1ccc2[nH]c(=O)n(CC(=O)N[C@@H](C)c3ccc(F)cc3F)c(=O)c2c1 [Compound 51, (S)-N-(1-(2,4-difluorophenyl)ethyl)-2-(6-methyl-2,4-dioxo-1,4-dihydroquinazolin-3(2H)-yl)acetamide]
28 | 0.412 µM | 0.658 µM | 17.77 µM |  | C[C@H](NC(=O)[C@@H](C)n1c(=O)[nH]c2ccc(F)c(F)c2c1=O)c1ccc(F)cc1F [Compound 37, (R)-2-(5,6-difluoro-2,4-dioxo-1,4-dihydroquinazolin-3(2H)-yl)-N-((S)-1-(2,4-difluorophenyl)ethyl)propanamide]
29 | 100 µM | 100 µM | 100 µM |  | COc1cccc(C(C)NC(=O)Cn2c(=O)[nH]c3ccccc3c2=O)c1 (stereo not drawn) [Compound 522, 2-(2,4-dioxo-1,4-dihydroquinazolin-3(2H)-yl)-N-(1-(3-methoxyphenyl)ethyl)acetamide]
